Reference: paper PMC7589190, “Targeted Amino Acid Substitutions in a Trichoderma Peptaibol Confer Activity against Fungal Plant Pathogens and Protect Host Tissues from Botrytis cinerea Infection” (International Journal of Molecular Sciences, 2020)
Entries after “also recorded” stand apart in the source; their conditions may differ. Marks after values point to notes of the source that are not given here. Square brackets hold non-standard residues; d marks the D form. Peptide text beside a SMILES is read from it. * marks the point of attachment. Leu(ol) = CC(C)C[C@H](N)CO; Octanoyl = CCCCCCCC(=O)*; Api = NC1(C(=O)O)CCNCC1; Aib = CC(C)(N)C(=O)O

Experiments:
B. cinerea [1] = assay type: cell-based, Botrytis cinerea; conditions: 15 µM, 96 h, absorbance at 450 nm
P. expansum = conditions: for growth inhibition at maximum concentration tested: 15 µM, 96 h, absorbance at 450 nm
B. sorokiniana = assay type: cell-based, Bipolaris sorokiniana; conditions: for growth inhibition at maximum concentration tested: 15 µM, 96 h, absorbance at 450 nm
B. cinerea [2] = experiment: Resazurin vital dye growth assay in microtiter wells; assay type: cell-based, Botrytis cinerea; parameters: key to Antifungal Activity: –, no activity; conditions: for Growth Delay / fungal growth / activity against B. cinerea (in words): peptide 15 µM; for Growth Delay: PDB pH 6.9, 5 × 10^5 spores mL^−1, resazurin, 25 °C dark, vs untreated control, repeated three times; for fungal growth / activity against B. cinerea (in words): resazurin dye; for Antifungal Activity: summary of performance of Lys-containing analogs against B. cinerea
F. graminearum = conditions: for MIC: 96 h, pH 6.9
[3] = system: pronase E (a mixture of different proteases); conditions: after 27 h, HPLC
trypsin = conditions: HPLC
B. cinerea [4] = experiment: Protection of common bean leaves from B. cinerea infection; conditions: for reduction of infected (symptomatic) leaf area: common bean leaves (Phaseolus vulgaris, Borlotto var. Teggia), peptide sprayed at 50 µM
Method: Leaves of common bean (Phaseolus vulgaris, Borlotto var. Teggia) were detached from 12 days-old plants grown in organic soil into a climatic chamber with a 14 h photoperiod and 22/20 °C day/night temperature.
Treatments were performed by spraying the peptides at different concentrations on leaves and berries. Water spraying was performed as a negative control.
Leaves were arranged on moist towels in plastic trays and inoculated with a suspension of 2.5 × 10^6 mL^−1 conidia of B. cinerea in potato dextrose broth (PDB). Ten microliters of the conidia suspension were dropped on two or three points apart on the leaf surface of common bean and grapevine leaves, respectively.
Inoculated leaves and berries were incubated in the dark at 25 °C in plastic bags to maintain humidity.
Seven days post-inoculation (dpi), the size of the symptomatic leaf area was measured from pictures taken with a Panasonic Lumix DMC-FZ2000 by using the graphic software “Fiji ImageJ” (GNU General Public License).
The experiment was repeated three times with leaves and four times with berries. Each treatment was performed with seven leaves of common bean and three leaves of the grapevine.
Data obtained in the infection experiments performed on common bean leaves were statistically analyzed by applying the one-way Anova Bonferroni–Holm test. The statistical analysis was performed within the groups of peptides tested at the same time compared to their respective control.

[5] = Water solubility of the peptides; assay type: physicochemical; conditions: native peptide; solubilized in ethanol before dilution in water
Method: Peptides were produced by manual and semiautomatic solid-phase peptide synthesis (SPPS). To reduce the impact on the environment of the synthesis, a limited excess of reagents was employed in the coupling steps (1.5–2.5 equivalents of coupling reagents instead of the standard 4 equivalents-1 equivalent corresponds to the loading of the resin). Moreover, all steps were performed in the ecofriendly solvent mixture of dimethylsulfoxide/ethyl acetate 1:9 instead of the hazardous solvent N,N-dimethylformamide (DMF). We exploited ethyl cyano(hydroxyimino) acetate (Oxyma pure) and diisopropylcarbodiimide (DIC), classified by the ACS Green Chemistry Institute® Pharmaceutical Roundtable as two of the greenest coupling reagents, instead of the commonly employed O-benzotriazol-1-yl-1,1,3,3 tetramethyluronium hexafluorophosphate (HBTU)/1-hydroxy-1,2,3-benzotriazole (HOBt) mixture or HATU [2-(1H-7-aza-1,2,3-benzotriazol-1-yl)-1,1,3,3-tetramethyl uronium hexafluorophosphate]. The strategy reduced the environmental impact and synthetic costs by more than 70% compared to our previous methods based on standard procedure. By adopting a manual/semiautomatic synthetic approach, the amount of solvents and reagents were reduced relative to those used in automated synthesis. The steric hindrance of Aib makes it poorly reactive, to the point that standard procedures employ repeated couplings. […]

B. cinerea [6] = experiment: Protection of grapevine leaves from B. cinerea infection; assay type: in vivo, Botrytis cinerea; conditions: grapevine leaves cv. Glera, 50 µM, 7 dpi, vs water control, three experiments
B. cinerea conidia = experiment: Cell viability assay of conidia (Evan's blue staining, plating on PDA); assay type: cell-based, Botrytis cinerea; conditions: 15 µM
B. cinerea [7] = experiment: Protection of grape berries from B. cinerea infection; assay type: in vivo, Botrytis cinerea; conditions: 50 µM, vs control
[8] = monitored every 12 h for seven days

Compound | Growth Delay (B. cinerea [2]; monitored for seven days) [days] | fungal growth / activity against B. cinerea (in words) (B. cinerea [2]; [8]) | Growth Delay (B. cinerea [2]; [8]) [days] | Antifungal Activity (B. cinerea [2]) | reduction of infected (symptomatic) leaf area (B. cinerea [4]; 7 dpi, vs water control) | also measured
CCCCCCCC(=O)NC(C)(C)C(=O)NCC(=O)N[C@@H](CC(C)C)C(=O)NC(C)(C)C(=O)NCC(=O)NCC(=O)N[C@@H](CC(C)C)C(=O)NC1(C(=O)NCC(=O)N[C@H](C(=O)N[C@H](CO)CC(C)C)[C@@H](C)CC)CCNCC1 [Peptide 8, [Api^8]-trichogin] (Octanoyl-[Aib]GL[Aib]GGL[Api]GI[Leu(ol)]) | >7 | No growth occurred |  |  |  | growth inhibition at maximum concentration tested (B. cinerea [1]): completely inhibited the growth; growth inhibition at maximum concentration tested (P. expansum): completely inhibited the growth; growth inhibition at maximum concentration tested (B. sorokiniana): strong growth inhibition effect; growth inhibition at maximum concentration tested (F. graminearum): completely inhibited the growth; MIC (F. graminearum): 5 to 15 µM
CCCCCCCC(=O)NC(C)(C)C(=O)NCC(=O)N[C@@H](CC(C)C)C(=O)NC(C)(C)C(=O)N[C@@H](CCCCN)C(=O)NC(C)(C)C(=O)N[C@@H](CC(C)C)C(=O)NC(C)(C)C(=O)NCC(=O)N[C@H](C(=O)N[C@H](CO)CC(C)C)[C@@H](C)CC [Peptide 6] |  | delayed growth | 0.5 to 1 | + |  | 
CCCCCCCC(=O)NC(C)(C)C(=O)N[C@@H](CCCCN)C(=O)N[C@@H](CC(C)C)C(=O)NC(C)(C)C(=O)N[C@@H](CCCCN)C(=O)NCC(=O)N[C@@H](CC(C)C)C(=O)NC(C)(C)C(=O)NCC(=O)N[C@H](C(=O)N[C@H](CO)CC(C)C)[C@@H](C)CC [Peptide 1] (Octanoyl-[Aib]KL[Aib]KGL[Aib]GI[Leu(ol)]) |  | delayed growth | 0.5 to 1 | + ^a |  | stability against pronase [3]: stable; time to digestion by trypsin (trypsin): less than 15 min
CCCCCCCC(=O)NC(C)(C)C(=O)NCC(=O)N[C@@H](CC(C)C)C(=O)NC(C)(C)C(=O)N[C@@H](CCCCN)C(=O)N[C@@H](CCCCN)C(=O)N[C@@H](CC(C)C)C(N)=O [Peptide 4c1] (Octanoyl-[Aib]GL[Aib]KKL-NH2) | >7 | inhibiting mycelial growth |  |  | ~55% | 
CCCCCCCC(=O)NC(C)(C)C(=O)N[C@@H](CCCCN)C(=O)N[C@@H](CCCCN)C(=O)N[C@@H](CC(C)C)C(=O)NC(C)(C)C(=O)NCC(=O)N[C@H](C(=O)N[C@@H](CC(C)C)C(N)=O)[C@@H](C)CC [Peptide 4c2] (Octanoyl-[Aib]KKL[Aib]GIL-NH2) | >7 | inhibiting mycelial growth |  |  | about 70% | 
CCCCCCCC(=O)NC(C)(C)C(=O)NCC(=O)N[C@@H](CC(C)C)C(=O)NC(C)(C)C(=O)N[C@@H](CCCCN)C(=O)NCC(=O)N[C@@H](CC(C)C)C(=O)NC(C)(C)C(=O)NCC(=O)N[C@H](C(=O)N[C@H](CO)CC(C)C)[C@@H](C)CC [Peptide 3] |  | fungal growth was observed after 12 h | 0 | – |  | 
CCCCCCCC(=O)NC(C)(C)C(=O)NCC(=O)N[C@@H](CC(C)C)C(=O)NC(C)(C)C(=O)NCC(=O)N[C@@H](CCCCN)C(=O)N[C@@H](CC(C)C)C(=O)NC(C)(C)C(=O)NCC(=O)N[C@H](C(=O)N[C@H](CO)CC(C)C)[C@@H](C)CC [Peptide 5] | >7 | No growth occurred |  | ++++ | > 95% | growth inhibition at maximum concentration tested (B. cinerea [1]): completely inhibited the growth; disease symptoms (in words) (B. cinerea [4]; common bean leaves, 15 µM): significant decrease in disease symptoms; disease symptoms (in words) (B. cinerea [4]; common bean leaves, 50 µM): almost complete annulment; growth inhibition at maximum concentration tested (P. expansum): completely inhibited the growth; growth inhibition at maximum concentration tested (B. sorokiniana): strong growth inhibition effect; growth inhibition at maximum concentration tested (F. graminearum): completely inhibited the growth; MIC (F. graminearum): 5 to 15 µM
nOct-Aib-Gly^2-Leu-Aib-Gly^5-Gly-Leu-Aib^8-Gly-Ile-Lol [trichogin, trichogin GA IV, reference compound] |  | fungal growth was observed after 12 h; also recorded: completely inactive | 0 |  |  | activity against P. expansum (in words) (P. expansum): inactive; water solubility (in words) [5]: poor water solubility; activity against B. sorokiniana (in words) (B. sorokiniana): inactive; activity against F. graminearum (in words) (F. graminearum): inactive
CCCCCCCC(=O)NC(C)(C)C(=O)N[C@@H](CCCCN)C(=O)N[C@@H](CC(C)C)C(=O)NC(C)(C)C(=O)NCC(=O)NCC(=O)N[C@@H](CC(C)C)C(=O)NC(C)(C)C(=O)NCC(=O)N[C@H](C(=O)N[C@H](CO)CC(C)C)[C@@H](C)CC [Peptide 2] (Octanoyl-[Aib]KL[Aib]GGL[Aib]GI[Leu(ol)]) |  | delayed growth | 1.5 to 2 | ++ |  | 
CCCCCCCC(=O)NC(C)(C)C(=O)N[C@@H](CCCCN)C(=O)N[C@@H](CCCCN)C(=O)N[C@@H](CC(C)C)C(=O)NC(C)(C)C(=O)NCC(=O)N[C@H](C(=O)N[C@H](CO)CC(C)C)[C@@H](C)CC [Peptide 4c] (Octanoyl-[Aib]KKL[Aib]GI[Leu(ol)]) | >7 | inhibiting mycelial growth |  |  | ~55% | 
CCCCCCCC(=O)NC(C)(C)C(=O)NCC(=O)N[C@@H](CC(C)C)C(=O)NC(C)(C)C(=O)N[C@@H](CCCCN)C(=O)N[C@@H](CCCCN)C(=O)N[C@@H](CC(C)C)C(=O)NC(C)(C)C(=O)NCC(=O)N[C@H](C(=O)N[C@H](CO)CC(C)C)[C@@H](C)CC [Peptide 4] | >7 | No growth occurred |  | ++++ | > 95% | growth inhibition at maximum concentration tested (B. cinerea [1]): completely inhibited the growth; disease symptoms (in words) (B. cinerea [4]; common bean leaves, 15 µM): significant decrease in disease symptoms; disease symptoms (in words) (B. cinerea [4]; common bean leaves, 50 µM): almost complete annulment; reduction of lesion (symptomatic leaf) area (B. cinerea [4]; common bean leaves, peptide sprayed at 15 µM, 7 dpi, vs water control): about 75%; growth inhibition at maximum concentration tested (P. expansum): completely inhibited the growth; reduction of infected leaf area (B. cinerea [6]): about 70%; germination of conidia (microscopy, Evans blue) (B. cinerea conidia; 24 h incubation in PDB, 5 × 10^5 mL^−1 conidia): conidia did not germinate; fungal growth after rinsing and plating treated conidia on PDA (fungicidal activity) (B. cinerea conidia; treated 24 h, rinsed with distilled water, plated on PDA): No fungal growth was observed; growth inhibition at maximum concentration tested (B. sorokiniana): strong growth inhibition effect; increase in the number of asymptomatic berries (B. cinerea [7]): threefold increase; growth inhibition at maximum concentration tested (F. graminearum): completely inhibited the growth; MIC (F. graminearum): 5 to 15 µM
CCCCCCCC(=O)NC(C)(C)C(=O)N[C@@H](CCCCN)C(=O)N[C@@H](CC(C)C)C(=O)NC(C)(C)C(=O)NCC(=O)N[C@@H](CCCCN)C(=O)N[C@@H](CC(C)C)C(=O)NC(C)(C)C(=O)NCC(=O)N[C@H](C(=O)N[C@H](CO)CC(C)C)[C@@H](C)CC [Peptide 7] |  | delayed growth | 3 to 3.5 | ++ |  | 
